Tests used:
[1] = for CNS Prediction: predictive penetration in the CNS from PAMPA-BBB Pe
Experimental: (§1) To evaluate the brain penetration of the different compounds, a parallel artificial membrane permeation assay for blood-brain barrier was used, following the method described by Di et al. (cf. Table 2). The in vitro permeability (Pe) of fourteen commercial drugs through lipid extract of porcine brain membrane together with the test compounds were determined. Commercial drugs and assayed compounds were tested using a mixture of PBS:EtOH (70:30).

in vitro = details: pig, PAMPA
Experimental: as §1

Structure (SMILES) | CNS Prediction [1] | Papp (in vitro) | Permeability (Pe) Experimental value ± SD (n = 3) ([1]; PAMPA-BBB, PBS:EtOH (70:30), three experiments in triplicate)
CCOP(=O)(OCC)[C@]1(c2ccccc2)N=C[C@H]2C(=O)N(CCc3ccc(F)cc3)C(=O)[C@H]21 (racemic) [Compound I-36, Diethyl (1RS,3aSR,6aSR)-5-(4-fluorophenethyl)-4,6-dioxo-1-phenyl-1,3a,4,5,6,6a-hexahydropyrrolo[3,4-c]pyrrole-1-phosphonate] | CNS+ (compounds of high BBB permeation (CNS+): Pe (10^−6 cm s^−1)>5,179) | 7.2 ± 0.45 ×10⁻⁶ cm/s | –
CCOP(=O)(OCC)[C@]1(c2ccccc2)N=C[C@H]2C(=O)N(c3ccc(F)cc3)C(=O)[C@H]21 (racemic) [Compound I-37, Diethyl (1RS,3aSR,6aSR)-5-(4-fluorophenyl)-4,6-dioxo-1-phenyl-1,3a,4,5,6,6a-hexahydropyrrolo[3,4-c]pyrrole-1-phosphonate] | CNS+/− (compounds of uncertain BBB permeation (CNS+/−): 5,179>Pe (10^−6 cm s^−1)>2,083) | 3.2 ± 0.2 ×10⁻⁶ cm/s | –
CCOP(=O)(OCC)[C@]1(c2ccccc2)N=C[C@H]2C(=O)N(c3ccc(C(F)(F)F)cc3)C(=O)[C@H]21 (racemic) [Compound I-38, Diethyl (1RS,3aSR,6aSR)-4,6-dioxo-1-phenyl-5-[4-(trifluoromethyl)phenyl]-1,3a,4,5,6,6a-hexahydropyrrolo[3,4-c]pyrrole-1-phosphonate] | CNS+ (compounds of high BBB permeation (CNS+): Pe (10^−6 cm s^−1)>5,179) | 5.6 ± 0.15 ×10⁻⁶ cm/s | –
CCOP(=O)(OCC)[C@]1(c2ccccc2)N=C[C@H]2C(=O)N(c3ccc(Cl)c(Cl)c3)C(=O)[C@H]21 (racemic) [Compound I-44, Diethyl (1RS,3aSR,6aSR)-5-(3,4-dichlorophenyl)-4,6-dioxo-1-phenyl-1,3a,4,5,6,6a-hexahydropyrrolo[3,4-c]pyrrole-1-phosphonate] | CNS+ (compounds of high BBB permeation (CNS+): Pe (10^−6 cm s^−1)>5,179) | 8.9 ± 0.3 ×10⁻⁶ cm/s | –
CCOP(=O)(OCC)[C@]1(c2ccccc2)N=C[C@H]2C(=O)N(c3ccc(C)cc3)C(=O)[C@H]21 (racemic) [Compound I-45, Diethyl (1RS,3aSR,6aSR)-4,6-dioxo-1-phenyl-5-(p-tolyl)-1,3a,4,5,6,6a-hexahydropyrrolo[3,4-c]pyrrole-1-phosphonate] | CNS+ (compounds of high BBB permeation (CNS+): Pe (10^−6 cm s^−1)>5,179) | 8.75 ± 0.5 ×10⁻⁶ cm/s | –
CCOP(=O)(OCC)[C@@]1(Cc2ccccc2)N=C[C@H]2C(=O)N(c3ccccc3)C(=O)[C@H]21 (racemic) [Compound I-46, Diethyl (1RS,3aSR,6aSR)-1-benzyl-4,6-dioxo-5-phenyl-1,3a,4,5,6,6a-hexahydropyrrolo[3,4-c]pyrrole-1-phosphonate] | CNS+ (compounds of high BBB permeation (CNS+): Pe (10^−6 cm s^−1)>5,179) | 6.9 ± 0.3 ×10⁻⁶ cm/s | –
CCOP(=O)(OCC)[C@]1(c2ccccc2)N=C[C@H]2C(=O)N(c3ccc(Cl)cc3)C(=O)[C@H]21 (racemic) [Compound I-49, Diethyl (1RS,3aSR,6aSR)-5-(4-chlorophenyl)-4,6-dioxo-1-phenyl-1,3a,4,5,6,6a-hexahydropyrrolo[3,4-c]pyrrole-1-phosphonate] | CNS+ (compounds of high BBB permeation (CNS+): Pe (10^−6 cm s^−1)>5,179) | 5.5 ± 0.03 ×10⁻⁶ cm/s | –
CCCN1C(=O)[C@@H]2[C@@H](C=N[C@@]2(c2ccccc2)P(=O)(OCC)OCC)C1=O (racemic) [Compound I-51, Diethyl (1RS,3aSR,6aSR)-4,6-dioxo-1-phenyl-5-propyl-1,3a,4,5,6,6a-hexahydropyrrolo[3,4-c]pyrrole-1-phosphonate] | CNS+ (compounds of high BBB permeation (CNS+): Pe (10^−6 cm s^−1)>5,179) | 6.2 ± 0.3 ×10⁻⁶ cm/s | –
CCn1cc(C(=O)O)c(=O)c2cc(F)c(N3CCNCC3)cc21 [norfloxacine, reference compound] | – | – | 0.90 ± 0.02 10−6 cm s^−1

Source: patent US20220064195A1, “SYNTHETIC I2 IMIDAZOLINE RECEPTOR LIGANDS FOR PREVENTION OR TREATMENT OF HUMAN BRAIN DISORDERS” (Universitat de Barcelona, priority 2018, published 2022)
